Reference: patent publication US9706770B2, “Rodenticide bait comprising difenacoum and method for controlling target rodent pests” (priority 2014, dated 2017)
Where two headings read alike, the source gives them in different places.

How the values were obtained:
Sprague Dawley male rats [1] = assay: Coagulation time (Quick time) after a single per os dose of purified cis- or trans-difenacoum; assay type: in vivo, rat
Method: The comparative study of the rodenticidal efficacy of purified trans-difenacoum and purified cis-difenacoum is carried out by administration by means of a stomach tube (per os): • of a solution of cis-difenacoum to a first group of four “Sprague Dawley” male rats weighing between 180 and 220 g, and • of a solution of trans-difenacoum to a second group of four “Sprague Dawley” male rats weighing between 180 and 220 g.
These solutions of cis-difenacoum and trans-difenacoum are obtained by weighing cis-difenacoum or trans-difenacoum and dilution in a mixture formed from 95% vegetable oil and 5% DMSO.
The doses of cis-difenacoum and trans-difenacoum used are 2.6 mg of cis-difenacoum or trans-difenacoum per kilogram of rat. The dose of 2.6 mg of cis-difenacoum and trans-difenacoum per kilogram of rat corresponds to 4 times the median lethal dose (LD50) of difenacoum for rats. The dose of 5.2 mg of cis-difenacoum or trans-difenacoum per kilogram of rat corresponds to 8 times the median lethal dose (LD50) of difenacoum for rats.
3 ml blood samples are taken from the rats anaesthetised with isoflurane in sample tubes containing citrate (3.2%). The tubes are centrifuged at 2,000 g for 10 minutes and the plasma fraction is collected.
The coagulation time (Quick time) of the plasma is analysed by means of the “Neoplastine CI Determination of Prothrombin Time” kit (Diagnostica Stago, Asnière, France) by measurement on a Thrombotimer option 2 plus (Behnk Electronik, Norderstedt, Germany).
The normal value for the coagulation time of untreated rats is 10 to 20 seconds.

[2] = assay type: in vivo, rat; conditions: for concentration in the liver: D+1
Method: (§1) On D0 a control composition of the prior art comprising a molar proportion of cis-difenacoum of 56% and a molar proportion of trans-difenacoum of 44% is administered per os to seven groups of four male laboratory rats (Sprague Dawley rats, Charles River, Saint germain sur l'Arbresle, France) weighing between 180 and 220 g in an amount of 5.2 mg of difenacoum per kilogram of rat. On D+1, D+3, D+5, D+7, D+10, D+14 and D+21, 4 rats are sacrificed. The livers are removed and weighed. A liquid/solid extraction of difenacoum with acetone is performed. The difenacoum is analysed by HPLC on a C8 (250 mm×10 mm) column kept at 30° C. with a mobile phase formed from 80% acetonitrile and 20% acid water. The flow rate of the mobile phase is kept at 2 ml/min and the trans-difenacoum and cis-difenacoum are detected by spectrophotometric analysis at the wavelength of 258 nm. The trans-difenacoum and cis-difenacoum are quantified by calibration with known amounts of trans-difenacoum and cis-difenacoum. The results are given in FIG. 3, in which the hepatic persistence of trans-difenacoum is represented by solid squares (▪) and the hepatic persistence of cis-difenacoum is represented by open diamonds (⋄).
On D+1 the concentration of cis-difenacoum in the liver of the female rats (9.6 μg/g of liver) is essentially equivalent to the concentration of cis-difenacoum in the liver of the male rats (7.3 μg/g of liver). The concentration on D+1 of trans-difenacoum in the liver of the female rats (3.3 μg/g of liver) is greater than the concentration of trans-difenacoum in the liver of the male rats (0.9 μg/g of liver). […] For the same dosage, the hepatic concentrations of trans-difenacoum are thus higher in the female at least up to three days after treatment (D0).

in vivo [3] = assay type: in vivo, rat; conditions: Sprague Dawley, liver, oral, female rats
Method: (§2) Counting from D0 and for three days (D0, D+1 and D+2), trans-difenacoum in an amount of 0.3 mg/kg; 0.6 mg/kg; 0.75 mg/kg; 1.2 mg/kg or 2.6 mg/kg (mg of trans-difenacoum per kilogram of female rat) is administered to female “Sprague Dawley” rats in an amount of one dose per day. On D+4, the coagulation time of these female rats is measured and the concentration of trans-difenacoum in the liver (expressed in μg of difenacoum per g of liver) of these female rats is analysed. The administration for three days (D0, D+1 and D+2) in an amount of a dose of trans-difenacoum greater than 0.3 mg/kg/day to female rats achieves at D+4 a high value of the coagulation time (greater than or equal to 500 seconds) in these female rats and a moderate hepatic persistence of less than 10 μg of trans-difenacoum per gram of liver for a dose of less than 2.6 mg/kg.

[4] = test system: female Sprague Dawley rats; assay: in vivo; assay type: in vivo, rat
Method: as §2

in vivo [5] = assay type: in vivo, rat; conditions: Sprague Dawley, rat, liver, oral; male rats, one dose per day on D0, D+1, D+2; D+3 (day following the last dose); read-out: hepatic persistence (concentration in the liver)
Method: (§3) Counting from D0 and for three days (D0, D+1 and D+2), trans-difenacoum in an amount of 0.6 mg/kg, 1.2 mg/kg or 2.6 mg/kg (mg of trans-difenacoum per kilogram of male rat) is administered daily to “Sprague Dawley” male rats weighing between 180 and 220 g. On D+3, the coagulation time of these male rats is measured and the concentration of trans-difenacoum in the liver of these male rats (expressed in μg of trans-difenacoum per g of liver) is analysed.

Sprague Dawley male rats [6] = assay: in vivo; assay type: in vivo, rat
Method: as §3

[7] = Hepatic persistence of trans and cis stereoisomers after a single per os dose of a mixture (Table 1); assay type: in vivo, rat; conditions: male Sprague Dawley rats, mixture 56% trans/44% cis, 5.2 mg difenacoum/kg per os on D0, mean of 4 rats
Method: On D0 per os tube feeding is performed on male laboratory rats (Sprague Dawley rats, Charles River, Saint germain sur 1′ Arbresle, France) aged 8 weeks and with a body mass of the order of 200 g with a mixture comprising 56% of trans-difenacoum and 44% of cis-difenacoum in an amount of 5.2 mg of difenacoum per kilogram of rat. The rats are kept alive by daily subcutaneous injection of a solution of vitamin K in an amount of 1 U per rat. On D+1, D+3, D+5, D+7, D+10, D+14 and D+21, 4 rats are anaesthetised with isoflurane and then sacrificed, and the livers are removed and frozen until analysed.

in vivo [8] = assay: in vivo; parameters: species or system rat; conditions: male rats, control composition 56% cis/44% trans, 5.2 mg difenacoum/kg per os on D0; for hepatic concentration: from D+3
Method: as §1

[9] = molecular target: T1, recombinant enzyme rVKORC1 (Rattus norvegicus, UniProt Q6TEK4); assay: Inhibition constant of the recombinant enzyme rVKORC1; assay type: biochemical
T1 sequence (Q6TEK4 1-161): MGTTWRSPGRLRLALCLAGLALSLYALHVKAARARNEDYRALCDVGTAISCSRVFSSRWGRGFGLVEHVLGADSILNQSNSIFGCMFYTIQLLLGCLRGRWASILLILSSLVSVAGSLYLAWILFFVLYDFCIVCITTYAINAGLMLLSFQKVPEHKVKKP
Method: In addition, the value of the inhibition constant (Kicis=60 nM) of the recombinant enzyme rVKORC1 by cis-difenacoum is similar to the value of the inhibition constant of rVKORC1 by trans-difenacoum (Kitrans=30 nM).

[10] = 2.6 mg/kg per os on D0, D+1, untreated 10 to 20 seconds

SMILES: O=c1oc2ccccc2c(O)c1C1CC(c2ccc(-c3ccccc3)cc2)Cc2ccccc21 (stereo not drawn) [trans-difenacoum, 3-(biphenyl-4-yl)-1-(4-hydroxycoumarin-3-yl)-1,2,3,4-tetrahydronaphthalene]
- coagulation time (Quick time) (Sprague Dawley male rats [1]; [10]): 62 s
- coagulation time (Quick time) (Sprague Dawley male rats [1]; 5.2 mg/kg per os on D0, D+1): 84 s
- concentration in the liver, female rats in comparison with male rats ([2]; D+3): greater in the female rats
- concentration in the liver ([2]; female rats): 3.3 μg/g of liver
- kinetics of the hepatic elimination, female rats versus male rats ([2]; in particular during the first 3 days): slower in the female rats than in the male rats
- concentration in the liver ([2]; male rats): 0.9 μg/g of liver
- concentration at 4 day (in vivo [3]; 2.6 mg/kg per day, 2.6 mg per day and per kilogram of rat for 3 days, read-out: hepatic concentration): ~12000 ng/g
- concentration at 4 day (in vivo [3]; rat, three daily doses of less than 2.6 mg/kg, D+4, read-out: hepatic persistence): < 10000 ng/g
- coagulability of the blood (increase in coagulation time) ([4]; dosage of 0.6 mg/kg or higher, three daily doses): uncoagulable
- coagulation time ([4]; dose greater than 0.3 mg/kg/day on D0, D+1, D+2, D+4): greater than or equal to 500 seconds
- concentration at 3 day (in vivo [5]): ~2000 ng/g
- amount contained in a rat corpse (Sprague Dawley male rats [6]; considering that the liver contains half the ingested trans-difenacoum): about 40 μg
- coagulability of the blood (increase in Quick time) (Sprague Dawley male rats [6]; male rat, dosage of 1.2 mg/kg or higher, three daily doses): uncoagulable
- global amount per liver (Sprague Dawley male rats [6]; male rat, liver mass taken as of the order of 10 g): 20 µg
- Quick time (Sprague Dawley male rats [6]; male rats, 0.6, 1.2 or 2.6 mg/kg one dose per day on D0, D+1, D+2, D+3): massive increase
- Hepatic content ([7]; D + 1): 4.22 µg/g
- Hepatic content ([7]; D + 3): 1.05 µg/g
- Hepatic content ([7]; D + 5): 0.25 µg/g
- Hepatic content ([7]; D + 10): 0.1 µg/g
- Hepatic content ([7]; D + 21): 0.17 µg/g
- concentration at 1 day (in vivo [8]; Sprague Dawley, rat, liver, oral, 5.2 mg/kg, D+1, read-out: hepatic concentration): ~1000 ng/g
- hepatic concentration (in vivo [8]): almost undetectable
- Ki [9]: 30 nM

SMILES: O=c1oc2ccccc2c(O)c1C1CC(c2ccc(-c3ccccc3)cc2)Cc2ccccc21 (stereo not drawn) [cis-difenacoum, 3-(biphenyl-4-yl)-1-(4-hydroxycoumarin-3-yl)-1,2,3,4-tetrahydronaphthalene, reference compound]
- coagulation time (Quick time) (Sprague Dawley male rats [1]; [10]): 62 s
- concentration in the liver ([2]; female rats): 9.6 μg/g of liver
- concentration in the liver ([2]; male rats): 7.3 μg/g of liver
- Hepatic content ([7]; D + 1, listed as cis): 16.82 µg/g
- Hepatic content ([7]; D + 3, listed as cis): 8.28 µg/g
- Hepatic content ([7]; D + 5, listed as cis): 4.86 µg/g
- Hepatic content ([7]; D + 10, listed as cis): 1.85 µg/g
- Hepatic content ([7]; D + 21, listed as cis): 1.41 µg/g
- hepatic concentration (in vivo [8]): 4 µg/g
- Ki [9]: 60 nM
